From patent EP0232423A1, “CIRCULATION IMPROVING AGENT” (GRELAN PHARMACEUTICAL CO., LTD., priority 1985, dated 1987)
Structures can show the parent of a compound that is named as a salt.

Columns and labels:
isolated femoral artery [1] = assay: K-induced 45Ca influx in isolated femoral artery; type: cell-based, Mongrel dogs; settings: 10^-5 M + 50 mM KCl
Source text: (§1) Using the isolated basilar artery and femoral artery treated in accordance with Test Example 2, the activity of (a) compound (I) (lactate), (b) ifenprodil tartrate and (c) verapamil hydrochloride against ^45Ca influx and ^45Ca uptake were examined by the conventional method (J. Membran. Biol., vol. 59, page 19, 1981).

mice = assay: Protective action on death caused by endotoxin shock; type: in vivo; settings: for Number of survival after administration of endotoxin: of 15 (Compound (I)) or 14 (ifenprodil) animals
Source text: Compound (I) and ifenprodil tartrate were orally administered to mice and the protective action on death due to endotoxin shock was examined in accordance with a known method (Folia pharmacol. japon, vol. 86, page 17, 1985). The control group was drug-untreated.

isolated femoral artery [2] = assay: Ca antagonistic action: Ca-induced contraction in K-depolarized femoral artery; type: cell-based, Mongrel dogs; settings: Canis lupus familiaris, 0.25 h, 50 mM KCl, Ca-free bath, cumulative CaCl2, compound applied 15 minutes before, read-out: pA2 values on Ca-induced contraction in depolarized muscle by K (converted)
Procedure: (§2) The same measurements as in Test Example 2 were carried out using the isolated basilar artery and isolated femoral artery treated in accordance with the method of Test Example 2.
(§3) For examination of the Ca antagonistic action, the depolarization of both isolated arteries was induced with 50 mM KC1 in a bathing solution from which Ca had been removed and then CaCl2 was cumulatively applied thereto. As test compounds, (a) compound (I) (erythro form) lactate and (b) ifenprodil tartrate were applied at 15 minutes before addition of CaCl2.

isolated basilar artery [3] = assay: Ca antagonistic action: Ca-induced contraction in K-depolarized basilar artery; type: cell-based, Mongrel dogs; settings: Canis lupus familiaris, 0.25 h, 50 mM KCl, Ca-free bath, cumulative CaCl2, compound applied 15 minutes before, read-out: pA2 values on Ca-induced contraction in depolarized muscle by K (converted)
Procedure: as §2, §3

α2-adrenoceptor = assay: Antagonism of clonidine (α2-agonist) contraction in saphenous vein; type: cell-based, Mongrel dogs; settings: α2 - agonist: clonidine, competitive antagonism, 15 min
Source text: (§4) In this experiment, phenylephrine and clonidine were used as al-agonist and a2-agonist, respectively, and these agonists were cumulatively applied to obtain a dose-response curve.

isolated femoral artery [4] = assay: K-induced 45Ca uptake in isolated femoral artery; type: cell-based, Mongrel dogs; settings: 50 mM KCl alone 586.0 ± 17.9
Source text: as §1

α1-adrenoceptor = assay: Antagonism of phenylephrine (α1-agonist) contraction in saphenous vein; type: cell-based, Mongrel dogs; settings: α1 - agonist: phenylephrine; saphenous vein; 15 minutes treatment
Source text: as §4

isolated femoral artery [5] = assay: Relaxation of isolated femoral artery contracted by 50 mM KCl; type: cell-based, Mongrel dogs; settings: Canis lupus familiaris, 50 mM KCl contraction
Procedure: (§5) Mongrel dogs of either sex (body weight 10-17 kg) were killed by bleeding under anesthetization with pentobarbital sodium (tradename: Nembutai ® Abbott Co., USA). Thereafter, the basilar and femoral arteries were extracted and attached blood and connective tissues were carefully removed in a dish filled with Krebs bicarbonate solution (composition: NaCl 117.7 mM, KC1 4.7 mM, CaCl2 2.5 mM, MgSo4 1.2 mM, glucose 10 mM, NaHCO3 24.4 mM). Thereafter, ring preparations were made therefrom. This preparation was suspended in a bathing tube of 10 ml filled with Krebs bicarbonate solution aerated with 95 % 02 and 5 % C02.
(§6) Then, samples of basilar and femoral arteries were contracted by application of 50 mM KC1. After confirming that the contraction was sustained, (a) compound (I) (erythro form) lactate, (b) compound (I) (threo form) lactate and (c) ifenprodil; [2-(4-benzyl- piperidino-l-(4-hydroxyphenyl)propane-l-ol] tartrate were, respectively, administered as test compounds and the dose-relaxation response was examined.
(§7) A strain gauge transducer (model SB-lT manufactured by Nihon Koden Co.) was employed for recording of change of tension and isometric contraction was recorded on a recorder (model QPD 53 made by Hitachi Ltd . ) .

isolated basilar artery [6] = assay: Relaxation of isolated basilar artery contracted by 50 mM KCl; type: cell-based, Mongrel dogs; settings: Canis lupus familiaris, 50 mM KCl contraction
Procedure: as §5, §6, §7

ddY male mice [7] = assay: Thromboembolic respiratory depression induced by ADP; type: in vivo; settings: 30 mg/kg oral, ADP 40 mg/kg i.v., Compound (I) = erythro form
Procedure: The degree of formation of platelet thrombi in the pulmonary vessels of mice induced by intravenous administration of ADP can be measured based on the decrease in the respiratory rate. The anti-platelet thrombotic action of test drugs can be evaluated by using this decrease in the respiratory rate as a standard. […] Relative respiratory rate (%) was calculated according to the following formula. [formula] (cf. "Thrombosis Research", Vol. 35, Page 311, 1984)

isolated coronary artery = assay: Relaxation of isolated coronary artery; type: cell-based, Mongrel dogs; settings: Canis lupus familiaris, read-out: ED50 (the source's name)
Procedure: as §5, §6, §7
Experiments were conducted in accordance with the method of Test Example 2 with use of the coronary artery in place of the basilar and femoral arteries. […]

isolated basilar artery [8] = assay: PGF2α-induced 45Ca uptake in isolated basilar artery; type: cell-based, Mongrel dogs; settings: 10^-5 M + 10^-5 M PGF2α; PGF2α alone 166.2 ± 6.0
Source text: as §1

ddY male mice [9] = assay: Prolongation of gasping time in complete cerebral ischemic (decapitated) animals; type: in vivo; settings: for Ratio of time (%): prolongation as compared with the control group; for Duration time of gasping: decapitated after 30 minutes
Procedure: After 30 minutes from administration, the.mice were decapitated and the duration time of gasping was measured. The control group was drug-untreated.

CC(C(O)c1ccc(O)cc1)N1CCC(Cc2ccccc2)CC1 (centres unmarked) [Ifenprodil tartrate]
K-induced ^45Ca influx in isolated femoral artery (isolated femoral artery [1]; pre-incubation 15 min, 50 mM KCl alone 94.6 ± 5.2): 99.8 ± 6.4 n mol/g wt. tissue
K-induced ^45Ca influx in isolated femoral artery (isolated femoral artery [1]; pre-incubation 45 min, 50 mM KCl alone 98.4 ± 6.8): 59.0 ± 9.8 n mol/g wt. tissue
K-induced ^45Ca influx in isolated femoral artery (isolated femoral artery [1]; pre-incubation 135 min): 64.8 ± 7.5 n mol/g wt. tissue
Number of survival after administration of endotoxin (mice; 70 mg/kg oral, 18 hr): 11
Number of survival after administration of endotoxin (mice; 70 mg/kg oral, 20 hr): 9
Number of survival after administration of endotoxin (mice; 70 mg/kg oral, 22 hr): 6
Number of survival after administration of endotoxin (mice; 70 mg/kg oral, 24 hr): 2
Number of survival after administration of endotoxin (mice; 70 mg/kg oral, 48 hr): 0
Number of survival after administration of endotoxin (mice; 200 mg/kg oral, 18 hr): 11
Number of survival after administration of endotoxin (mice; 200 mg/kg oral, 20 hr): 9
Number of survival after administration of endotoxin (mice; 200 mg/kg oral, 22 hr): 7
Number of survival after administration of endotoxin (mice; 200 mg/kg oral, 24 hr): 7
Number of survival after administration of endotoxin (mice; 200 mg/kg oral, 48 hr): 5
protective action on the death (endotoxin shock) (mice; oral, mice, compound (I) at 200 mg/kg): no such effect
Kb (isolated femoral artery [2]): 29.5 µM
Kb (isolated basilar artery [3]): 5.37 µM
pA2 value (α2-adrenoceptor): 8.31
K-induced ^45Ca uptake in isolated femoral artery (isolated femoral artery [4]; 5 x 10^-5 M + 50 mM KCl): 471.2 ± 40.0 n mol/g wt. tissue
K-induced ^45Ca uptake in isolated femoral artery (isolated femoral artery [4]; 10^-4 M + 50 mM KCl): 486.5 ± 20.9 n mol/g wt. tissue
K-induced ^45Ca uptake in isolated femoral artery (isolated femoral artery [4]; 10^-5 M + 50 mM KCl): 635.2 ± 41.4 n mol/g wt. tissue
pA2 value (α1-adrenoceptor): 8.22 ± 0.29
inhibition at 50 µM (isolated femoral artery [5]; 5 x 10^-5 M, mean, n = 4 - 5): 49.8%
inhibition at 100 µM (isolated femoral artery [5]; 10^-4 M, mean, n = 4 - 5): 75.9%
inhibition at 10 µM (isolated femoral artery [5]; 10^-5 M, mean, n = 4 - 5): 2.8%
inhibition at 1 µM (isolated femoral artery [5]; 10^-6 M, mean, n = 4 - 5): 0%
inhibition at 0.1 µM (isolated femoral artery [5]; 10^-7 M, mean, n = 4 - 5): 0%
EC50 (isolated femoral artery [5]; relaxation of isolated femoral artery, read-out: ED50 (the source's name)): 52 µM
inhibition at 50 µM (isolated basilar artery [6]; 5 x 10^-5 M, mean, n = 4 - 5): 96.6%
inhibition at 100 µM (isolated basilar artery [6]; 10^-4 M, mean, n = 4 - 5): 100%
inhibition at 10 µM (isolated basilar artery [6]; 10^-5 M, mean, n = 4 - 5): 44.1%
inhibition at 1 µM (isolated basilar artery [6]; 10^-6 M, mean, n = 4 - 5): 5.1%
inhibition at 0.1 µM (isolated basilar artery [6]; 10^-7 M, mean, n = 4 - 5): 0.9%
EC50 (isolated basilar artery [6]; relaxation of isolated basilar artery, read-out: ED50 (the source's name)): 11 µM
Relative respiratory rate (%) (ddY male mice [7]; 1/3 hr after administration): 34.6 ±10.2 (n=8) %
Relative respiratory rate (%) (ddY male mice [7]; 1 hr after administration): 61.3 ±9.3 (n=6) %
Relative respiratory rate (%) (ddY male mice [7]; 2 hr after administration): 52.7 ±6.1 (n=10) %
Relative respiratory rate (%) (ddY male mice [7]; 3 hr after administration): 41.0 ±4.4 (n=8) %
Relative respiratory rate (%) (ddY male mice [7]; 5 hr after administration): 23.0 ±9.9 (n=7) %
EC50 (isolated coronary artery): 26 µM
PGF2α-induced ^45Ca uptake in isolated basilar artery (isolated basilar artery [8]): 125.7 ± 5.6 n mol/g wt. tissue
Ratio of time (%) (ddY male mice [9]; 10 mg/kg i.p.): 10.0%
Duration time of gasping (ddY male mice [9]; 10 mg/kg intraperitoneally): 23.0 ± 0.5 s
Ratio of time (%) (ddY male mice [9]; 30 mg/kg i.p.): 28.7%
Duration time of gasping (ddY male mice [9]; 30 mg/kg intraperitoneally): 26.9 ± 1.2 s
